The source of these data is US11672802B2, “Induction of immune tolerance by using methotrexate” (Genzyme Corporation, priority 2011, dated 2023).

One data set deals with anti-rhGAA IgG. Description: Anti-rhGAA IgG ELISA titers in mice treated with rhGAA. Format: in vivo. Here is the method:
Recombinant human alglucosidase alfa (rhGAA, marketed by Genzyme Corp. as Myozyme®) was used as a formulated drug product. Mice were treated weekly with 20 mg/kg of rhGAA by bolus tail vein injection unless stated differently. All mice were treated prophylactically with 5 to 30 mg/kg diphenhydramine (Baxter Healthcare Corporation, Deerfield, Ill.) intraperitoneally prior to rhGAA administration. Control animals were treated intravenously with either sterile 0.9% saline or rhGAA-formulation buffer. Methotrexate treatment
Mice were bled 4-6 days following rhGAA treatment and specific IgG was measured by ELISA. […] Endpoint titers were defined as the reciprocal of the sample dilution resulting in an absorbance value of 0.2 using Softmax software (Molecular Devices, Sunnyvale, Calif.).
C57Bl/6 mice were treated with one 20 mg/kg intravenous dose of rhGAA (Genzyme Corporation), 3 consecutive intraperitoneal doses of 5 mg/kg methotrexate (APP Pharmaceuticals, LLC), and either 1D11 or 13C4 at 5 mg/kg (Genzyme Corporation) for 3 doses every other day. Methotrexate, 1D11, and 13C4 treatment commenced with rhGAA injections. Spleens were collected 7 days after treatment initiation and were processed as described above for B cells, culture and flow analysis. Additionally, rhGAA titer data was obtained by treating animals as described above, with rhGAA dosed weekly over 12 weeks, methotrexate dosed for either 1 or 3 cycles, and 1D11 or 13C4 dosed 3 times a week every other day for 12 weeks. Serum samples were collected every 2 weeks for ELISA analysis.
On the technique in general: ELISA stands for enzyme-linked immunosorbent assay.

Data set [1] relates to allogeneic heart transplant. Kind of data set: Murine allogeneic heart transplant model, graft survival. It is filed as in vivo, mice (C57BL/6 donor, Balb/c recipient). The following applies: mouse, in vivo. Here is the method: Polyclonal antibody mATG was administered as an intraperitoneal injection of 5 mg/kg every four weeks or as two 20 mg/kg doses given four days apart when in the transplant setting with the first dose given on the day of transplant (day 0).
C57BL/6 and BALB/c mice were obtained from Charles River (Kingston, N.Y. or Raleigh, N.C.) and used in these experiments between 8 and 13 weeks of age. The donor allogenic C57BL/6 mice were first anesthetized with an intraperitoneal injection of Ketamine (Fort Dodge Animal Health/Pfizer, Fort Dodge, Iowa) and Xylazine (Lloyd, Shenandoah, Iowa) and a median sternotomy was performed. […] The ascending aorta and pulmonary artery were then transected, the graft removed from the donor and the heart was stored in ice-cold saline until engraftment. A recipient mouse (Balb/c) was similarly anesthetized and prepped as described above for donor mice, except that the abdominal cavity was opened. […] After hemostasis was confirmed, the abdominal muscle was closed with a running 5-O Vicryl suture (Ethicon, Johnson & Johnson, Somerville, N.J.), and the skin closed with running 5-0 Ethilon suture (Ethicon). Standard post-op pain assessment and management was performed. Grafts were assessed by palpation 5-7 times per week for the first 30 day, and then 3-4 times per week until the end of the study.

The next data set relates to anti-alemtuzumab IgG. Kind of data set: Anti-alemtuzumab IgG ELISA titers in huCD52 Tg mice.
Data set [2] concerns anti-alemtuzumab antibodies. As to conditions: rheumatoid arthritis patients, single dose escalation study; cited from earlier work.
The test system of data set [3] is circulating and splenic T cells and B cells. Kind of data set: Flow cytometry of alemtuzumab-mediated lymphocyte depletion in blood and spleen. Format: in vivo, huCD52 Tg mice. As to the method:
For splenocyte and lymph node cell preparations single-cell suspensions were generated from harvested mouse spleens or inguinal and mesenteric lymph nodes by homogenization between frosted glass slides into PBS containing 2% FCS. For splenocyte preparations, red blood cells were lysed by 1-2 minute incubation with a red blood cell lysis solution (BD Biosciences, San Diego, Calif.). Blood was isolated by retro-orbital bleeding and cell preparations were performed by lysing red blood cells with red blood cell lysing solution (BD Biosciences) for 20-30 minutes. For all tissue preparations, live cells were enumerated using the ViCell automated counter (Beckman Coulter, Fullerton, Calif.). Following isolation, all cell preparations were washed with PBS/2% FCS prior to use in the assays described below.
For evaluation of cell populations within different tissues, single cell suspensions of the tissues were incubated with fluorochrome-conjugated antibodies that included anti-mouse CD4, CD8, CD25, CD44, CD62L (all antibodies from BD Biosciences or eBioscience, San Diego, Calif.). Intracellular Foxp3 expression analysis was performed according to the anti-Foxp3 manufacturer's protocol (eBiosciences, San Diego, Calif.). Following incubation with the antibodies, cells were washed and analyzed by flow cytometry (FACSCanto, BD Biosciences and FCS Express software, De Novo Software, Los Angeles, Calif.).

Where [4] appears, read: alemtuzumab 0.5 mg/kg iv five consecutive days.
Setting [5] is: peripheral blood, four weeks after five consecutive days of 0.5 mg/kg iv.

Excerpt for anti-alemtuzumab IgG: Alemtuzumab-related studies employed human CD52 (huCD52) transgenic (Tg) mice between 6-12 weeks of age that were obtained from Charles River Laboratories/Genzyme Corp. Mice were housed and maintained in accordance with the Guide for Care and Use of Laboratory Animals and under American Association for Accreditation of Laboratory Animals Care I accreditation and all animal protocols used in these studies were approved by the Institutional Animals Care and Use Committee.
Monoclonal antibody alemtuzumab was administered intravenously as either a single injection of 0.5 mg/kg or in either a three or five day cycle of 0.5 mg/kg/day.
Methotrexate (Calbiochem catalog #454125) was administered at 0.5, 1.0, 2.0 or 5 mg/kg by intraperitoneal injection for 1-3 cycles, where each cycle equals either three, six or seven consecutive days of injection depending upon the experiment.
Mice were bled 4-6 days following alemtuzumab treatment and specific anti-alemtuzumab IgG was measured by ELISA. Briefly, 96-well plates (Corning Inc., Corning, N.Y., USA) were coated overnight with 3 μg/ml of alemtuzumab in PBS (pH 7.2). Following blocking with 0.1% BSA in PBS, serial dilutions of serum were added in duplicate to alemtuzumab-coated plates and incubated at 37° C. for 1 h. The plates were washed, and horseradish peroxidase-conjugated goat anti-mouse IgG secondary antibody (Southern Biotechnology Associates, Birmingham, Ala., USA) was added and allowed to incubate for 1 h at 37° C. Following a final wash, TMB substrate (BioFx, Owings Mills, Md., USA) was added and allowed to develop for 15 min at room temperature. The reaction was stopped by the addition of 1 N HCl and absorbance values were read at 450/650 nm on an ELISA plate reader (Molecular Devices, Sunnyvale, Calif., USA). End-point titers were defined as the antilog of the logarithmically transformed sample dilution interpolated at an absorbance value of 0.2 using Excel software (Microsoft, Redmond, Wash., USA).

In the case of “rhGAA: recombinant human acid alpha-glucosidase, marketed by Genzyme as Myozyme”, the “ADA to rhGAA” value with anti-rhGAA IgG (T cell deficient Nu/Nu mice) is “little to no ADA”. Besides, in the data set with anti-rhGAA IgG (week 6, rhGAA alone, rhGAA + methotrexate, or with 5 mg/kg 1D11 or 13C4), the “animals exhibiting high anti-rhGAA titers” value is on record as “two”.

With `COc1c(C)c2c(c(O)c1C/C=C(\C)CCC(=O)OCCN1CCOCC1)C(=O)OC2` [mycophenolate mofetil], the “graft survival when co-administered with mATG” value in data set [1] is reported as “failed to significantly prolong graft survival”.

“alemtuzumab: lymphocyte-depleting humanized anti-CD52 monoclonal antibody”: in the data set with anti-alemtuzumab IgG (alemtuzumab 0.5 mg/kg iv), the ADA responses elicited result is given as “significant ADA responses”. The “ADA response following the fifth dose” value with anti-alemtuzumab IgG (alemtuzumab 0.5 mg/kg monthly) is recorded as “no longer generated anti-alemtuzumab antibodies”. For the same molecule, the “ADA titers against alemtuzumab” value with anti-alemtuzumab IgG (huCD52 Tg CD1 mice) was > 100,000. For the same molecule, the “patients in whom anti-alemtuzumab antibodies developed” value in data set [2] was 63%. Moreover, in data set [3] (24 hours after a single dose of alemtuzumab), the “percent depletion of circulating B cells” value was 92%. Further, in data set [3] (setting [4]), the “splenic follicular, B1 and regulatory B cells” value is listed as “depleted at one and/or two weeks”; the “splenic marginal zone, transitional 1 and transitional 2 B cells” value is on record as “not depleted at any of the time-points”; the “splenic transitional 3 B cells” value is “only depleted after one week of treatment”. For the same molecule, the “depletion of circulating T cells by fifth monthly dose of alemtuzumab” value in data set [3] (alemtuzumab alone, or with methotrexate 5 mg/kg daily for first three days) was “no longer deplete T cells”. Besides, in data set [3] (setting [5]), the “recovery of CD19+ B cell numbers” value is “returned to control levels”; the “recovery of total CD3+ T cells, CD4+ T helper cells and CD8+ T cytotoxic cells” value is “did not recover to pre-treatment levels”. The “earliest depletion observed in peripheral blood, post-dosing” value in data set [3] (single dose of alemtuzumab) is listed as “three hours”. In addition, the “percent depletion of circulating B cells” value in data set [3] (three days after a single dose of alemtuzumab) amounted to 36%. Moreover, in data set [3] (three days after a single dose of alemtuzumab, no methotrexate), the splenic cell subsets entry is recorded as “significantly depleted”.

Consider `O=P1(N(CCCl)CCCl)NCCCO1` (stereo not drawn) [cyclophosphamide], for which the “graft survival when co-administered with mATG” value in data set [1] was “failed to significantly prolong graft survival”.
